According to US8802679B2, “Glycine compound” (Astellas Pharma Inc., priority 2009, dated 2014):
Counter-ions that a name gives are not always drawn.

Tests used:
rat VAP-1 enzyme (SSAO) = rat VAP-1 enzyme (SSAO) (Rattus norvegicus (Rat), UniProt O08590); experiment: Inhibitory effect on rat VAP-1 enzyme (SSAO) activity, radiochemistry-enzymatic assay with 14C-benzylamine; assay type: biochemical; conditions: enzyme from CHO cells expressing rat VAP-1; 14C-benzylamine 1×10^−5 mol/L
Procedure: Inhibitory Effect of Compound on Rat VAP-1 Enzyme (SSAO) Activity
(§1) A rat VAP-enzyme 1 (SSAO) activity was measured by a radiochemistry-enzymatic assay using ^14C-benzylamine as an artificial substrate. An enzyme suspension prepared from CHO (Chinese Hamster Ovary) cells stably expressing a rat VAP-enzyme 1 (SSAO) was preincubated with the compound of the present invention in a 96-well microplate at room temperature for 30 minutes. Subsequently, the enzyme suspension was incubated with ^14C-benzylamine (a final concentration of 1×10^−5 mol/L) to a final volume of […] at 37° C. for 1 hour. The enzymatic reaction was stopped by the addition of 2 mol/L (50 μL) of citric acid. The oxidation products were extracted directly in a 200-μL toluene scintillator, and the radioactivity was measured with a scintillation spectrometer.
(§2) In addition, the inhibitory activity is expressed in IC50 (nmol/L).

[1] = tested on: VAP-1 enzyme activity in plasma; experiment: Plasma VAP-1 enzyme activity after oral administration to rats (radio-enzyme assay); assay type: in vivo, Wistar male rats; conditions: rat, oral 1 mg/kg; for Inhibition Ratio (%) of plasma VAP-1 activity, 1 h: 1 h after administration; for Inhibition Ratio (%) of plasma VAP-1 activity, 3 h: 3 h after administration; for Inhibition Ratio (%) of plasma VAP-1 activity, 6 h: 6 h after administration; for Inhibition Ratio (%) of plasma VAP-1 activity, 12 h: 12 h after administration
Procedure: Eight-week to twelve-week Wistar male rats were fasted for 20 hours, and orally administered with a test drug (1 mg/1 kg). Heparin blood collection from the tail vein was performed immediately before the administration, and at 1 h, 3 h, 6 h, and 12 h after the administration. The resulting blood was subjected to centrifugation at 14000 rpm for 5 minutes to separate plasma, and the VAP-1 enzyme activity in the resulting plasma was measured by a radio-enzyme assay method.
For the radio-enzyme assay method, ^14C-benzylamine which is a synthetic substrate (10 μM) was reacted with the resulting plasma at 37° C., and the resulting metabolite was extracted with a mixture of toluene/ethyl acetate. The radioactivity was measured and taken as a VAP-1 enzyme activity in the plasma. The effect of the test drug was calculated from the ratio (%) of the VAP-1 activity after the administration of the test drug relative to the VAP-1 activity in the plasma immediately before the administration (100%).

[2] = biological target: human VAP-1 enzyme (SSAO) (Homo sapiens (Human), UniProt Q16853); experiment: Inhibitory effect on human VAP-1 enzyme (SSAO) activity, radiochemistry-enzymatic assay with 14C-benzylamine; assay type: biochemical; conditions: enzyme from CHO cells expressing human VAP-1; 14C-benzylamine 1×10^−5 mol/L
Procedure: Inhibitory Effect of Compound on Human VAP-1 Enzyme (SSAO) Activity
as §1, with “human VAP-1 enzyme” for “rat VAP-enzyme 1”
as §2

human VAP-1 enzyme (SSAO), sequence (Q16853 whole entry): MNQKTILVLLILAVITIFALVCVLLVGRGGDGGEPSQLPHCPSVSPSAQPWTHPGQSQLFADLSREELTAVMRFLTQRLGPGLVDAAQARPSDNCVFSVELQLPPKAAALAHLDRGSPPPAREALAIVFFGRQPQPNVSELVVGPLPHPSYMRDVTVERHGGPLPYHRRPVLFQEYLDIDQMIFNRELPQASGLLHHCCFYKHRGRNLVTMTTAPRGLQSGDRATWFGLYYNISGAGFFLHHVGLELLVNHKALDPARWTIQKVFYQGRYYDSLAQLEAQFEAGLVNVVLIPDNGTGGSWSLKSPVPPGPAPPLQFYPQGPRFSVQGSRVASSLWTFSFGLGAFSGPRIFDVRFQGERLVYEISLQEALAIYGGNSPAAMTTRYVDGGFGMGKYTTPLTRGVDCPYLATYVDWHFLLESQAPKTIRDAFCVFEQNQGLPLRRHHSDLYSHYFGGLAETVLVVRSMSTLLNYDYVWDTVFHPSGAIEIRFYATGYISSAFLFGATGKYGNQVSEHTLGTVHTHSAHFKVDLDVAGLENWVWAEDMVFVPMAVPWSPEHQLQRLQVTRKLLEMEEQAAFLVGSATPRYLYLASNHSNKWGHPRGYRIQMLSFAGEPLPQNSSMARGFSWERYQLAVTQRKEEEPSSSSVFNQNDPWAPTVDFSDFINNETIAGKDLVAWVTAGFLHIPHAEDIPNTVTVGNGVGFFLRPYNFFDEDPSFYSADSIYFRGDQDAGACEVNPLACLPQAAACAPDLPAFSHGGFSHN
rat VAP-1 enzyme (SSAO), sequence (O08590 whole entry): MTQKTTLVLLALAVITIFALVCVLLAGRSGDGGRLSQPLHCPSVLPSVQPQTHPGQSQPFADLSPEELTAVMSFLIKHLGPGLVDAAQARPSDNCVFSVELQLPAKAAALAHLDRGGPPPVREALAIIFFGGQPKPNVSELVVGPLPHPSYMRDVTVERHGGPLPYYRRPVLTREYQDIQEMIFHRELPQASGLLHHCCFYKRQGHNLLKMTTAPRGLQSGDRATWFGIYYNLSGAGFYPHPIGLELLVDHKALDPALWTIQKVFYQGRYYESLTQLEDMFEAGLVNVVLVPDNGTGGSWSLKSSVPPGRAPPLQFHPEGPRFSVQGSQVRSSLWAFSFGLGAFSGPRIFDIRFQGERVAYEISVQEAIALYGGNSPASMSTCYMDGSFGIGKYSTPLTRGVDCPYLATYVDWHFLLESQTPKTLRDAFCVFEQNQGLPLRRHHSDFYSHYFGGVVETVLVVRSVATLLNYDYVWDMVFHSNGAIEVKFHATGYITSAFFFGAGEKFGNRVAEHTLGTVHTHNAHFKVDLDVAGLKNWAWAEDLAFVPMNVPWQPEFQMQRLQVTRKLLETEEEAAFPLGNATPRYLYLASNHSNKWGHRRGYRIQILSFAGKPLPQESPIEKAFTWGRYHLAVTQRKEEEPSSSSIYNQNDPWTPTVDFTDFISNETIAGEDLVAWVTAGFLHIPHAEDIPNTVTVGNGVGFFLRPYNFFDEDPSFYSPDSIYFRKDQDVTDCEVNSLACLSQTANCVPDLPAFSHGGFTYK

| Compound | IC50 (rat VAP-1 enzyme (SSAO)) | Inhibition Ratio (%) of plasma VAP-1 activity, 1 h [1] | Inhibition Ratio (%) of plasma VAP-1 activity, 3 h [1] | Inhibition Ratio (%) of plasma VAP-1 activity, 6 h [1] | Inhibition Ratio (%) of plasma VAP-1 activity, 12 h [1] | IC50 [2] |
| --- | --- | --- | --- | --- | --- | --- |
| CN(Cc1cccc(-c2cnc(N3CCC(c4cccnc4)CC3)nc2)c1)C(=O)CN [Ex 190] | 19 nM | 42% | 48% | 41% | 11% | 23 nM |
| Cc1nc2c(s1)CN(c1ncc(-c3cccc(CN(C)C(=O)CN)c3)cn1)CC2 [Ex 102] | 12 nM | 65% | 62% | 71% | 40% | 20 nM |
| CN(Cc1cccc(-c2cnc(N3CCCC3)nc2)c1)C(=O)CN [Ex 75] | 3.6 nM | 78% | 58% | 38% | 24% | 49 nM |
| Cc1cc(/C=C/C(=O)O)cnc1N1CCN(c2ncc(-c3cccc(CN(C)C(=O)CN)c3)cn2)CC1 [Example 19, (2E)-3-(6-{-4-[5-(3-{[glycyl(methyl)amino]methyl}phenyl)pyrimidin-2-yl]piperazin-1-yl}-5-methylpyridin-3-yl)acrylic acid dihydrochloride] | 6.9 nM | 84% | 79% | 75% | 63% | 6.9 nM |
| CN(Cc1cccc(-c2cnc(N3CCOCC3)nc2)c1)C(=O)CN [Example 69, N-methyl-N-[3-(2-morpholin-4-ylpyrimidin-5-yl)benzyl]glycinamide L-tartrate] | 9.8 nM | 72% | 56% | 39% | 24% | 32 nM |
| CN(Cc1cccc(-c2cnc(N3CCN(c4ccc(C(=O)O)cc4Cl)CC3)nc2)c1)C(=O)CN [Example 263, 3-chloro-4-{4-[5-(3-{[glycyl(methyl)amino)methyl}phenyl)pyrimidin-2-yl]piperazin-1-yl}benzoic acid dihydrochloride] | 15 nM | 97% | 95% | 80% | 75% | 25 nM |
| CN(Cc1cccc(-c2cnc(N3CCN(c4ccc(C#N)nc4)CC3)nc2)c1)C(=O)CN [Example 261, N-(3-{2-[4-(6-cyanopyridin-3-yl)piperazin-1-yl]pyrimidin-5-yl}benzyl)-N-methylglycinamide L-tartrate] | 21 nM | 36% | 44% | 45% | 32% | 17 nM |
| Cc1cc(CCC(=O)O)cnc1N1CCN(c2ncc(-c3cccc(CN(C)C(=O)CN)c3)cn2)CC1 [Ex 66] |  | 78% | 81% | 74% | 67% |  |
| C[C@@H]1CN(c2ncc(-c3cccc(CN(C)C(=O)CN)c3)cn2)C[C@H](C)O1 [Ex 78] |  | 31% | 18% | 3% | −4% |  |
| CN(Cc1cccc(-c2cnc(N3CCN(c4ncc(/C=C/C(=O)O)cc4Cl)CC3)nc2)c1)C(=O)CN [Example 33] | 21 nM | 84% | 87% | 97% | 83% | 31 nM |
| CN(Cc1cccc(-c2cnc(N3CC=C(c4cccnc4)CC3)nc2)c1)C(=O)CN [Ex 191] | 14 nM | 35% | 43% | 48% | 20% | 7 nM |
